The values that follow come from publication PMC4977651, “Molecular features of biguanides required for targeting of mitochondrial respiratory complex I and activation of AMP-kinase” (BMC Biology, 2016).

“And” between values parts separate entries of the source, which are not always exact repeats. Equal values may be shown once.

For experiment [1], the system named is bovine mitochondrial membranes (complexes II-III-IV). The experiment is described as follows: Succinate:O2 oxidoreduction (complexes II-III-IV, complex II assay) by bovine mitochondrial membranes. It counts as biochemical, Bos taurus. To be noted: biguanide concentrations set to the IC50 values for NADH:O2 on bovine membranes; control = 100.00; n = 3. As for the experimental part: Assays were performed at 32 °C in a SpectraMax 96-well plate reader. NADH:decylubiquinone oxidoreduction by complex I at 0.5 μg mL^−1 was measured in 20 mM Tris-HCl (pH 7.2), 0.15 % soy bean asolectin (Avanti Polar Lipids), and 0.15 % 3-((3-cholamidopropyl)dimethylammonium)-1-propanesulfonate (CHAPS, Merck Chemicals Ltd), with 200 μM decylubiquinone and 200 μM NADH, and monitored using ε340–380(NADH) = 4.81 mM^−1 cm^−1 [23]. Catalysis was initiated by addition of NADH and maximal rates determined by linear regression. NADH:O2 oxidoreduction by membranes was measured similarly but using 5 μg mL^−1 membranes in 10 mM Tris-HCl (pH 7.4) and 250 mM sucrose using 200 μM NADH and supplemented with 0.15 mM horse heart cytochrome c (Sigma-Aldrich Ltd.). Succinate:O2 oxidoreduction was measured using 40 μg mL^−1 membranes in 5 mM succinate in 10 mM Tris-HCl (pH 7.4) as described previously. Control experiments included NaCl (to match the ionic strength) or DMSO, as appropriate.

Experiment [2] concerns MDBK cells. In words: Rotenone-sensitive oxygen consumption rate in intact MDBK cells. It counts as cell-based, Bos taurus. More on the design: key to rotenone sensitive OCR after 40 mins of biguanide exposure / rotenone sensitive OCR after 40 mins of biguanide exposure, average: % of OCR recorded immediately before biguanide addition. As to conditions: biguanide at IC50/10; for rotenone sensitive OCR after 6 hours of biguanide exposure, % control, average / rotenone sensitive OCR after 6 hours of biguanide exposure, average: MDBK cells; for rotenone sensitive OCR after 6 hours of biguanide exposure, average: OCR normalized to OCR immediately prior to biguanide addition; for rotenone sensitive OCR after 40 mins of biguanide exposure, % control, average / rotenone sensitive OCR after 40 mins of biguanide exposure, average / rotenone sensitive OCR after 40 mins of biguanide exposure / rotenone sensitive OCR after 40 mins of biguanide exposure, % control: MDBK intact cells; for rotenone sensitive OCR after 40 mins of biguanide exposure, % control, average / rotenone sensitive OCR after 40 mins of biguanide exposure, average: average of replicates; for rotenone sensitive OCR after 40 mins of biguanide exposure / rotenone sensitive OCR after 40 mins of biguanide exposure, % control: individual replicates. As for the experimental part: 143B (CRL-8303 from ATCC), HepG2 (85011430 from The Health Protection Agency), and MDBK (CCL-22 from ATCC) cells were grown on Dulbecco’s modified Eagle’s medium (DMEM) supplemented with 10 % fetal bovine serum (FBS, Thermo Fisher Scientific) at 37 °C in 5 % CO2. All cells were confirmed as negative for mycoplasma.
Oxygen consumption rates (OCRs) were measured using a Seahorse XF96 extracellular flux analyzer at 37 °C. For intact cell measurements, 1.4 × 10^4 143B, HepG2, or MDBK cells were plated (per well) in DMEM containing 10 % FBS into Seahorse Bioscience Inc. XF96 plates and incubated for ~12 h at 37 °C in 5 % CO2. Then, the medium was exchanged for assay buffer containing DMEM, 4.5 g L^−1 glucose, 1 mM pyruvate, 32 mM NaCl, 2 mM GlutaMAX, 15 mg L^−1 phenol red, and 20 mM HEPES (pH 7.4 at 37 °C) and the cells placed in a CO2-free incubator at 37 °C for 30 min. Basal oxygen consumption rates were established before the addition of biguanides at one-tenth of their IC50 (IC50/10), and followed for ~ 6 h before the addition of rotenone (2 μM).
(§1) Rotenone-sensitive OCRs were calculated by subtracting the rotenone-insensitive rates (determined at the end of the experiment). OCRs were normalized by dividing by the OCR recorded immediately prior to the addition of biguanide. For rate of uptake calculations, the OCRs at time points after biguanide addition were divided by the OCRs at the same time points in control experiments. Data from wells with failed port injections were excluded from the analyses. The respiratory control ratio (RCR) values (state III versus state IV respiration) were ~11 and ~6 for permeabilized MDBK and 143B cells, respectively.

The subject of experiment [3] is permeabilized MDBK cells. In words: ADP-stimulated rotenone-sensitive OCR in permeabilized MDBK cells. It is filed as cell-based, Bos taurus. Also noted: rotenone sensitive OCR after ADP stimulation, average / rotenone sensitive OCR after ADP stimulation: unit not given here. As to conditions: MDBK permeabilised cells; for rotenone sensitive OCR after ADP stimulation, % of control, average / rotenone sensitive OCR after ADP stimulation, average: average of replicates; for rotenone sensitive OCR after ADP stimulation / rotenone sensitive OCR after ADP stimulation, % of control: individual replicates. As to the method: For permeabilized cell experiments, cells were seeded into XF96 plates at 0.9–1.1 × 10^4 per well and incubated for 48 h at 37 °C in 5 % CO2. Then, the growth medium was exchanged for assay buffer containing 3 nM plasma membrane permeabilizer ‘PMP’ (Seahorse Biosciences Inc.), 10 mM glutamate, 10 mM malate, 220 mM mannitol, 70 mM sucrose, 10 mM KH2PO4, 5 mM MgCl2, 1 mM EGTA, 0.2 % fatty acid-free bovine serum albumin (BSA), and 2 mM HEPES (pH 7.4 at 37 °C). […] The biguanides were allowed to accumulate for 30 min, then respiration was […] by the addition of 4 mM ADP. Rotenone was added (2 μM) at the end of the experiment.
as §1

Experiment [4] concerns rat liver mitochondria. The experiment is described as follows: ADP-stimulated rotenone-sensitive OCR in isolated rat liver mitochondria. Also noted: rotenone sensitive OCR after ADP stimulation, individual replicates / rotenone sensitive OCR after ADP stimulation, average: unit not given here. It is filed as biochemical. To be noted: for rotenone sensitive OCR after ADP stimulation, % of control, average / rotenone sensitive OCR after ADP stimulation, average: average of replicates; for rotenone sensitive OCR after ADP stimulation, % of control, individual replicates / rotenone sensitive OCR after ADP stimulation, individual replicates: replicate 1-5. As for the experimental part:
(§2) Complex I and mitochondrial membranes were prepared from Bos taurus (bovine) heart. Intact mitochondria were isolated from rat liver and mouse heart and liver. Membranes were prepared from mouse heart mitochondria by 5 s bursts of sonication at 4 °C and collected by centrifugation (75,000 × g, 1 h).
(§3) Isolated mitochondria were monitored using a Seahorse XF96 extracellular flux analyzer at 32 °C. Mouse heart mitochondria, and mouse and rat liver mitochondria were plated into XF96 plates at 4 and 16–20 μg per well, respectively, in 220 mM mannitol, 70 mM sucrose, 10 mM KH2PO4, 5 mM MgCl2, 1 mM EGTA, 0.2 % fatty acid-free BSA, and 2 mM HEPES (pH 7.4 at 37 °C) with 10 mM glutamate and 10 mM malate and adhered by centrifugation (2000 × g, 20 min, 4 °C). The medium was supplemented with a further 5 mM glutamate and 5 mM malate and the mitochondria incubated for 15 min. Then two baseline readings were taken before the biguanides were added at IC50/5. Biguanides were allowed to accumulate for 15–20 min before respiration was […] by the addition of 4 mM ADP. Rotenone (2 μM) was added at the end of the experiment. Data from wells with failed port injections were excluded from the analyses. The RCR values (state III versus state IV respiration) were 3.4, 4.8, and 4.6 for mouse heart, rat liver, and mouse liver, respectively.

The test system of experiment [5] is mouse liver mitochondria. The experiment is described as follows: ADP-stimulated rotenone-sensitive OCR in isolated mouse liver mitochondria. It is filed as biochemical. Also noted: rotenone sensitive OCR after ADP stimulation, individual replicates / rotenone sensitive OCR after ADP stimulation, average: unit not given here. As to conditions: for rotenone sensitive OCR after ADP stimulation, % of control, average / rotenone sensitive OCR after ADP stimulation, average: average of replicates; for rotenone sensitive OCR after ADP stimulation, % of control, individual replicates / rotenone sensitive OCR after ADP stimulation, individual replicates: replicate 1-5. As to the method:
as §2, §3

In the case of `CC(C)N=C(N)N=C(N)NC(C)C` [compound 5, N-(propan-2-yl)-1-3-(propan-2-yl)carbamimidamidomethanimidamide], the “Complex II assay (succinate:O2 oxidoreduction), average” value in experiment [1] was determined as 100.71. Moreover, in experiment [2], the “rotenone sensitive OCR after 6 hours of biguanide exposure, % control, average” value amounted to 95.30 % control; the “rotenone sensitive OCR after 6 hours of biguanide exposure, average” value is 95.59; the “rotenone sensitive OCR after 40 mins of biguanide exposure, % control, average” value worked out at 97.92 % control; the “rotenone sensitive OCR after 40 mins of biguanide exposure, average” value was found to be 99.64. Moreover, in experiment [2], the “rotenone sensitive OCR after 40 mins of biguanide exposure” value was 98.03 and 101.32 and 101.34 and 98.05 and 98.68 and 101.35 and 98.70; the “rotenone sensitive OCR after 40 mins of biguanide exposure, % control” value is 96.34 % control and 99.57 % control and 99.60 % control and 96.36 % control and 96.98 % control and 99.61 % control and 97.00 % control. Moreover, in experiment [3], the “rotenone sensitive OCR after ADP stimulation, % of control, average” value (“rotenone sensitive OCR … % of control, average” for short) is given as 94.54 % of control and the “rotenone sensitive OCR after ADP stimulation, average” value is reported as 266.44. In experiment [3] (biguanide at IC50/5), the “rotenone sensitive OCR … % of control, average” value is listed as 94.54 % of control; the “rotenone sensitive OCR after ADP stimulation, average” value turned out to be 266.44; the “rotenone sensitive OCR after ADP stimulation” value was 341.66 and 308.83 and 224.55 and 216.86 and 280.18 and 213.17 and 210.97 and 335.32; the “rotenone sensitive OCR after ADP stimulation, % of control” value was 121.23 % of control and 109.59 % of control and 79.68 % of control and 76.95 % of control and 99.42 % of control and 75.64 % of control and 74.86 % of control and 118.98 % of control. In experiment [4], the “rotenone sensitive OCR … % of control, average” value is 92.45 % of control; the “rotenone sensitive OCR after ADP stimulation, average” value was 25.35; the “rotenone sensitive OCR after ADP stimulation, % of control, individual replicates” value is 107.71 % of control and 88.69 % of control and 80.94 % of control; the “rotenone sensitive OCR after ADP stimulation, individual replicates” value was 29.53 and 24.32 and 22.19. For the same compound, in experiment [5], the “rotenone sensitive OCR … % of control, average” value was 82.72 % of control; the “rotenone sensitive OCR after ADP stimulation, average” value was 28.70; the “rotenone sensitive OCR after ADP stimulation, % of control, individual replicates” value is 96.11 % of control and 71.97 % of control and 77.63 % of control and 85.15 % of control; the “rotenone sensitive OCR after ADP stimulation, individual replicates” value was 33.35 and 24.97 and 26.94 and 29.54.

For the compound `N=C(N)NC(N)=Nc1ccccc1` [compound 2, phenyl biguanide], in experiment [1], the “Complex II assay (succinate:O2 oxidoreduction), average” value is given as 92.05. Further, in experiment [2], the “rotenone sensitive OCR after 6 hours of biguanide exposure, % control, average” value is recorded as 99.86 % control; the “rotenone sensitive OCR after 6 hours of biguanide exposure, average” value is 100.16; the “rotenone sensitive OCR after 40 mins of biguanide exposure, % control, average” value is listed as 98.99 % control; the “rotenone sensitive OCR after 40 mins of biguanide exposure, average” value is on record as 100.73. Further, in experiment [2], the “rotenone sensitive OCR after 40 mins of biguanide exposure” value was 97.96 and 102.05 and 98.68 and 102.17 and 103.50 and 100.00; the “rotenone sensitive OCR after 40 mins of biguanide exposure, % control” value was 96.27 % control and 100.30 % control and 96.98 % control and 100.41 % control and 101.71 % control and 98.28 % control. Moreover, in experiment [3], the “rotenone sensitive OCR … % of control, average” value is reported as 101.81 % of control and the “rotenone sensitive OCR after ADP stimulation, average” value stood at 286.92. Also, in experiment [3] (biguanide at IC50/5), the “rotenone sensitive OCR … % of control, average” value is on record as 101.81 % of control; the “rotenone sensitive OCR after ADP stimulation, average” value came to 286.92; the “rotenone sensitive OCR after ADP stimulation” value was 411.58 and 226.55 and 268.24 and 253.43 and 274.79; the “rotenone sensitive OCR after ADP stimulation, % of control” value is 146.05 % of control and 80.39 % of control and 95.18 % of control and 89.93 % of control and 97.51 % of control. Also, in experiment [4], the “rotenone sensitive OCR … % of control, average” value is recorded as 93.19 % of control; the “rotenone sensitive OCR after ADP stimulation, average” value turned out to be 25.55; the “rotenone sensitive OCR after ADP stimulation, % of control, individual replicates” value is 95.39 % of control and 93.60 % of control and 90.74 % of control and 93.05 % of control; the “rotenone sensitive OCR after ADP stimulation, individual replicates” value was 26.15 and 25.66 and 24.88 and 25.51. In experiment [5], the “rotenone sensitive OCR … % of control, average” value is given as 78.67 % of control; the “rotenone sensitive OCR after ADP stimulation, average” value stood at 27.30; the “rotenone sensitive OCR after ADP stimulation, % of control, individual replicates” value is 80.64 % of control and 78.05 % of control and 77.34 % of control; the “rotenone sensitive OCR after ADP stimulation, individual replicates” value was 27.98 and 27.08 and 26.83.
